Test results: patent publication EP1161410B1, “RETINOID ANTAGONISTS AND USE THEREOF” (Basilea Pharmaceutica AG, priority 1999, dated 2000)

Columns and labels:
neonatal mouse calvaria = test: Bone resorption assay, calcium release from neonatal mouse calvaria in tissue culture; assay type: cell-based, Swiss albino mice
Procedure: A series of agents are known to induce or stimulate bone resorption. In this assay retinoid antagonists were tested for their capacity to inhibit or counteract the bone resorptive activity of bone resorption inducers.
Bone resorption was determined by quantification of calcium release from neonatal mouse calvaria (skull bones) in a tissue culture system, into supernatant medium. Calvaria were prepared from 4 days old mice (body weight 4-4.5 g) of time controlled mated Swiss albino mice. Frontal and parietal calvarial parts were dissected under a stereo-microscope and halved along the median suture. Half calvaria from all animals were randomly distributed to 6-well culture dishes (NUNC), containing stainless steel grids to support the bones at the interface of gas and medium. The tissue is incubated in BGJ medium (Bioconcept, Switzerland) according to a specified formulation supplemented with 1 mg/ml BSA (bovine serum albumin, SIGMA). Calvaria were cultured at 37°C in humidified atmosphere of 5% CO2 and 95% air. After 24 hours of preincubation, they were transferred to new dishes containing 1.7 ml fresh medium and test substances. Bone resorption inducers and retinoid antagonists were tested either as single agents or in combination. The cultures were then run for 72 hours. Calcium concentrations in culture supernatants were measured immediately after each incubation period. Stable, free calcium was determined in 25 µl samples with a spectrophotometric method using a methylthymol blue containing kit (Biomérieux), (E.M. Gindler and J.D. King, Am. J. Clin. Pathol. 1972, 58, 376-382). The resorptive response was expressed as µg calcium released per half calvarium during 3 days treatment.
Additional tests were done to examine calcium remaining in the calvaria. Calcium was extracted with 5% trichloroacetic acid (TCA) and determined in 50 µl samples after neutralization with NaOH. Furthermore, bone tissue viability was determined to exclude cytotoxicity. This was quantified by the colorimetric MTT tetrazolium test (T. Mosmann, J. Immunol. Methods 1983, 65, 55-63).
Bone resorption induced by the various agents was determined by measuring the amount of calcium released from half calvaria into the supernatant medium. Calcium release is indicated in µg per half calvarium in 1.7 ml medium. Calcium release from calvaria into medium as well as uptake of calcium from medium into calvaria can be measured. Efficacy of retinoid antagonists to inhibit the activity of bone resorption inducers is expressed as % inhibition. It is calculated from the difference between the amount of released calcium by bone resorption inducers alone and the amount of released calcium by their combination with retinoid antagonists. Retinoid antagonists alone induce neither calcium release nor uptake. Basal resorption rate in vehicle controls was 5 or less than 5%.

[1] = Effect on weight loss induced by all-trans retinoic acid in mice; conditions: female mice
Text: Effect of retinoids with RXR antagonistic activity on weight loss induced by all-trans retinoic acid in mice.
The test compounds were solubilized/suspended in arachis oil and applied intraperitoneally into female mice (25/30 g) for 5 days a week during 2 weeks.

IL-10 = IL-10 production by activated monocytes (SAC + IFN-γ); assay type: cell-based, human; conditions: SAC+IFN-γ alone 1040 pg/ml
TNF-α = TNF-α production by activated monocytes (SAC + IFN-γ); assay type: cell-based, human; conditions: SAC+IFN-γ alone 1840-2000 pg/ml
IL-12 [2] = test: IL-12 production by PBMC primed with IFNγ and stimulated with SAC; assay type: cell-based, human; conditions: IFNγ+SAC alone 360
Procedure: (§1) THP-1 cells were obtained from American Tissue Culture Collection and cultured in complete medium. To assay for IL-12 production, THP-1 cells, 1.25 x 10^6 cells/ml, were stimulated with S. aureus Cowan strain (SAC) (1/1000) and human recombinant interferon-γ (huIFN-γ (1000 U/ml) [Ma et al., J. Exp. Med. 183, 147-157 (1996)]. Alternatively, 0.5 x 10^6 human peripheral blood mononuclear cells (PBMC) (1 ml culture in 48 well plates) were primed with huIFN-γ (1000 U/ml) for 16 hours at 37°C, and then stimulated with SAC (1/1000). Supernatants were collected after 48 hours and freezed at -20 °C until assayed [Panina-Bordignon et al., J. Clin. Invest. 100, 1513-1519 (1997)].
(§2) IL-12 production was measured by specific enzyme linked immuno sorbant assay (ELISA), using 20C2 antibody (rat anti human IL-12 heterodimer p40-p35), at 2.5 µg/ml in coating buffer, and peroxidase-conjugated 4D6 antibody (rat anti human IL-12) at 250 ng/ml in assay buffer as described [Zhang et al., J. Clin. Invest. 93, 1733-1739 (1994)]. Standard (recombinant human IL-12, 800 pg/ml to 6 pg/ml) and samples (100 µl) diluted in assay buffer were added to duplicate wells. Absorbance was read at 450-650 nm. The unknown IL-12 concentrations of the samples were read from the corresponding standard curve and multiplied by the corresponding dilution factor. Maximal IL-12 production varied between 200 and 400 pg/ml.
(§3) Lyophilized retinoid antagonists were diluted in DMSO under yellow light, on ice at a concentration of 2 mM. Serial dilutions (1 µM-1 pM) were prepared in complete RPMI medium. 10 µl of each dilution was added to 1 ml culture.

IL-12 [3] = test: IL-12 production by activated monocytes (SAC + IFN-γ), ELISA; assay type: cell-based, human; conditions: SAC+IFN-γ alone 120-126 pg/ml
Procedure: THP-1 cells were obtained from American Tissue Culture Collection and cultured in complete medium. […] Exp. Med. 183, 147-157 (1996)]. […] Supernatants were collected after 48 hours and freezed at -20 °C until assayed [[…]-Bordignon et al., J. Clin. Invest. 100, 1513-1519 (1997)]. […] Clin. Invest. 93, 1733-1739 (1994)]. […] Absorbance was read at 450-650 nm. The unknown IL-12 concentrations of the samples were read from the corresponding standard curve and multiplied by the corresponding dilution factor. […] Serial dilutions (1 μM-1 pM) were prepared in complete RPMI medium. 10 μl of each dilution was added to 1 ml culture.

IL-12 [4] = test: IL-12 production by THP-1 cells stimulated with IFNγ and SAC; assay type: cell-based, human; conditions: retinoid antagonist (1 µg) added at time 0 together with IFNγ, IFNγ+SAC alone 275
Procedure: as §1, §2, §3

[5] = A 200 mg/kg alone, intraperitoneally, n=2
[6] = C 100 mg/kg + A 200 mg/kg, intraperitoneally, n=2
[7] = C 200 mg/kg + A 200 mg/kg, intraperitoneally, n=2

## CC1=C(/C=C/C(C)=C/C=C/C(C)=C/C(=O)O)C(C)(C)CCC1 [Compound C, all-trans retinoic acid]
Neonatal mouse calvaria; all-trans RA 0.01 μM alone, series of antagonist B
  Calcium release per half calvarium: 1 ± 2 µg
Neonatal mouse calvaria; all-trans RA 0.01 μM alone, series of antagonist H
  Calcium release per half calvarium: 1 ± 4 µg
Neonatal mouse calvaria; all-trans RA 0.1 μM alone, series of antagonist B
  Calcium release per half calvarium: 13 ± 3 µg
Neonatal mouse calvaria; all-trans RA 0.1 μM alone, series of antagonist H
  Calcium release per half calvarium: 19 ± 11 µg
Neonatal mouse calvaria; all-trans RA 1 μM alone, series of antagonist B
  Calcium release per half calvarium: 17 ± 3 µg
Neonatal mouse calvaria; all-trans RA 1 μM alone, series of antagonist H
  Calcium release per half calvarium: 23 ± 8 µg
[1]; C 100 mg/kg alone, intraperitoneally, n=10
  % survival after 14 days: 20%
[1]; C 200 mg/kg alone, intraperitoneally 5 days a week during 2 weeks, n=2
  % survival after 14 days: 0%

## CC1=C(/C=C/C(C)=C\C=C\C(C)=C\C(=O)O)C(C)(C)CCC1 [Compound E, 9-cis retinoic acid]
Neonatal mouse calvaria; 9-cis RA 0.01 μM alone, series of antagonist B
  Calcium release per half calvarium: 3 ± 3 µg
Neonatal mouse calvaria; 9-cis RA 0.01 μM alone, series of antagonist H
  Calcium release per half calvarium: 6 ± 10 µg
Neonatal mouse calvaria; 9-cis RA 0.1 μM alone, series of antagonist B
  Calcium release per half calvarium: 17 ± 10 µg
Neonatal mouse calvaria; 9-cis RA 0.1 μM alone, series of antagonist H
  Calcium release per half calvarium: 22 ± 8 µg
Neonatal mouse calvaria; 9-cis RA 1 μM alone, series of antagonist B
  Calcium release per half calvarium: 18 ± 4 µg
Neonatal mouse calvaria; 9-cis RA 1 μM alone, series of antagonist H
  Calcium release per half calvarium: 40 ± 11 µg

## C=C1/C(=C\C=C2/CCC[C@]3(C)[C@@H]([C@H](C)CCCC(C)(C)O)CC[C@@H]23)C[C@@H](O)C[C@@H]1O [Calcitriol, 1,25-dihydroxyvitamin D3]
Neonatal mouse calvaria; Calcitriol 0.3 nM alone, 72 hours
  Calcium release per half calvarium: 4 ± 3 µg
Neonatal mouse calvaria; Calcitriol 1 nM alone, 72 hours
  Calcium release per half calvarium: 9 ± 4 µg
Neonatal mouse calvaria; Calcitriol 3 nM alone, 72 hours
  Calcium release per half calvarium: 13 ± 3 µg

## CC1(C)CCC(C)(C)c2cc3c(cc21)CCc1c(-c2ccc(C(=O)O)cc2)cn(Cc2cccnc2)c1-3 [Compound I, 4-(7,7,10,10-Tetramethyl-1-pyridin-3-ylmethyl-4,5,7,8,9,10-hexahydro-1H-naphto[2,3-g]indol-3-yl)-benzoic acid]
IL-10; antagonist 10 nM
  IL-10: 971 pg/mL
IL-10; antagonist 100 nM
  IL-10: 983 pg/mL
IL-10; antagonist 1000 nM
  IL-10: 1116 pg/mL
TNF-α; antagonist 10 nM
  TNF-α: 2592 pg/mL
TNF-α; antagonist 100 nM
  TNF-α: 2752 pg/mL
TNF-α; antagonist 1000 nM
  TNF-α: 2884 pg/mL
IL-12 [2]; retinoid antagonist (1 µg) added after 16 hours together with SAC
  PBMC IL-12: 367 pg/mL
IL-12 [2]; retinoid antagonist (1 µg) added at time 0 together with IFNγ
  PBMC IL-12: 371 pg/mL
IL-12 [3]; antagonist 10 nM
  IL-12: 173 pg/mL
IL-12 [3]; antagonist 100 nM
  IL-12: 205 pg/mL
IL-12 [3]; antagonist 1000 nM
  IL-12: 321 pg/mL
IL-12 [4]
  THP-1 IL-12: 364 pg/mL

## CCOc1c(\C(C)=C/C=C/C(C)=C/C(=O)O)cc(C(C)(C)C)cc1C(C)(C)C [Compound A, (2E,4E,6Z)-7-(3,5-di-tert.butyl-2-ethaxyphenyl]-3-methyl-2,4,6-octatrienoic acid]
[1]; [5]
  % survival after 14 days: 100%
  % weight change after 4 days: +15%
  % weight change after 7 days: +26%
[1]; [6]
  % survival after 14 days: 100%
  % weight change after 4 days: -13%
  % weight change after 7 days: -8%
[1]; [7]
  % survival after 14 days: 100%
  % weight change after 4 days: -23%
  % weight change after 7 days: -23%
